SMILES strings stand for the structures.

Test [1] concerns the target T1, Endoglucanase-5 (Mycothermus thermophilus, UniProt P43316).
T1 sequence (P43316 whole entry): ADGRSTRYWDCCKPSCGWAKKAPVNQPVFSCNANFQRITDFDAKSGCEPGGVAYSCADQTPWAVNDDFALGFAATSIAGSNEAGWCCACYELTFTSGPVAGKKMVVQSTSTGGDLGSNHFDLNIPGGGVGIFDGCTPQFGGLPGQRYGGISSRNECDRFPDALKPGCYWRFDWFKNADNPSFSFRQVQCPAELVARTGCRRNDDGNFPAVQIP
Description: Binding affinity to Humicola insolens NCE5 assessed as dissociation constant at pH 3.0 and at 59 degC by differential scanning calorimetry.

For test [2], the target named is T1, Endoglucanase-5. Description: Binding affinity to Humicola insolens NCE5 assessed as dissociation constant at pH 4.

For the compound `CO[C@H]1O[C@H](CO)[C@@H](S[C@@H]2O[C@H](CO)[C@@H](O[C@@H]3O[C@H](CO)[C@@H](O)[C@H](O)[C@H]3O)[C@H](O)[C@H]2O)[C@H](O)[C@H]1O`, the Ki on Endoglucanase-5 [1] is over 30 mM.

Turning to `CO[C@@H]1O[C@H](CO)[C@@H](S[C@@H]2O[C@H](CO)[C@@H](O[C@@H]3O[C@H](CO)[C@@H](O)[C@H](O)[C@H]3O)[C@H](O)[C@H]2O)[C@H](O)[C@H]1O`, at Endoglucanase-5 [1], the Ki was over 30 mM. As for `CO[C@@H]1O[C@H](CO)[C@@H](O[C@@H]2O[C@H](CO)[C@@H](S[C@@H]3O[C@H](CO)[C@@H](O[C@@H]4O[C@H](CO)[C@@H](O)[C@H](O)[C@H]4O)[C@H](O)[C@H]3O)[C@H](O)[C@H]2O)[C@H](O)[C@H]1O`, the Ki at Endoglucanase-5 [1] is 3.9 mM.

Consider `CO[C@H]1O[C@H](CO)[C@@H](S[C@@H]2C=C(CO)[C@@H](O[C@@H]3O[C@H](CO)[C@@H](O)[C@H](O)[C@H]3O)[C@H](O)[C@H]2O)[C@H](O)[C@H]1O`, for which the inhibition constant Ki on Endoglucanase-5 [1] was found to be 25 mM. Same read-out and setting: with `CO[C@@H]1O[C@H](CO)[C@@H](S[C@@H]2C=C(CO)[C@@H](O[C@@H]3O[C@H](CO)[C@@H](O)[C@H](O)[C@H]3O)[C@H](O)[C@H]2O)[C@H](O)[C@H]1O` the figure was 29 mM; with `CO[C@@H]1O[C@H](CO)[C@@H](O[C@@H]2O[C@H](CO)[C@@H](S[C@@H]3C=C(CO)[C@@H](O[C@@H]4O[C@H](CO)[C@@H](O)[C@H](O)[C@H]4O)[C@H](O)[C@H]3O)[C@H](O)[C@H]2O)[C@H](O)[C@H]1O`, 1.6 mM. Turning to `O=C[C@H](O)[C@@H](O)[C@H](O[C@@H]1O[C@H](CO)[C@@H](O[C@@H]2O[C@H](CO)[C@@H](O[C@@H]3O[C@H](CO)[C@@H](O[C@@H]4O[C@H](CO)[C@@H](O[C@@H]5O[C@H](CO)[C@@H](O)[C@H](O)[C@H]5O)[C@H](O)[C@H]4O)[C@H](O)[C@H]3O)[C@H](O)[C@H]2O)[C@H](O)[C@H]1O)[C@H](O)CO` [CELLOHEXOSE], on Endoglucanase-5 [2], the Ki came to 0.42 mM.

The values above are taken from ChEMBL document CHEMBL1795207, “Syntheses of cellotriose and cellotetraose analogues as transition state mimics for mechanistic studies of cellulases” (Bioorg Med Chem, 2011).
